Data set [1] relates to Bcl-2. Put plainly: Western blot of building block components, Bcl-2. Type of data set: cell-based. The conditions noted are these: for Bcl-2 (summary): oncogenic cells. The procedure: (§1) Skmel-28 melanoma cells were cultured in DMEM/F12 supplemented with 5% Fetal Bovine Serum (FBS) and 1× final concentration of Antibiotics. The cells were grown to 85% confluency and treated with building block components for 3, 6, 12 and 24 hours. The cells were then pelleted and a Western blot analysis was performed. The test building block components included L-Phenylylalanine, DL-Phenylylalanine, D-Phenylylalanine, L-Tyrosine, DL-Tyrosine, D-Tyrosine, 4-Hydroxy-phenylpyruvate, phenylacetate, 3-methoxy-4-hydroxymandelate (vanillylmandelate or VMA), vanillic acid, 4-hydroxy-benzoate, pyridoxine, panthenol, mevalonic acid, Acetylglycine, Acetyl-CoA, Farnesyl, and 2,3-Dimethoxy-5-methyl-p-benzoquinone.
(§2) In the Western Blot Analysis, the cells were pelleted in cold PBS, lysed, and the protein levels were quantified using a BCA protein assay. The whole cell lysate was loaded in a 4% loading 12% running Tris-HCl gel. The proteins were then transferred to a nitrocellulose paper then blocked with a 5% milk Tris-buffered solution for 1 hour. The proteins were then exposed to primary antibodies (Bcl-2 and Caspase-3) overnight. The nitrocellulose paper was then exposed to Pico Chemilluminescent for 5 min and the protein expression was recorded. After exposure, actin was quantified using the same method. Using ImageJ the levels of protein expression were quantified. A t-Test was used to analyze for statistical significance.

Data set [2] has as its system Caspase-3. Put plainly: Western blot of building block components, Caspase-3. Type of data set: cell-based. The conditions noted are these: for Caspase-3 expression: Skmel-28; for Caspase-3 expression (summary): oncogenic cells. The procedure:
as §1, §2
In general terms: In western blotting, separated proteins are transferred to a membrane and probed.

Data set [3] deals with neonatal fibroblast cells. Put plainly: Cell proliferation assay (coulter counter). Type of data set: cell-based. The conditions noted are these: HB 500 nM, 5 μM, 25 μM, alone and with benzoquinone 25, 50, 100 μM; 24 hours.
Experimental: A cell proliferation assay was also performed on neonatal fibroblast cells. The concentrations of HB tested were 500 nM, 5 μM, and 25 μM. HB was also tested in combination with benzoquinone at a concentrations of 25 μM, 50 μM, and 100 μM. Melanoma cells were seeded at 40 k cells per well and were treated for 24 hours. The cells were trypsinized and quantified using a coulter counter.
The test system of data set [4] is Melanoma cells. Description: Cell proliferation assay (cell count) of building block combinations. Type of data set: cell-based. The method, then:
This set of experiments used a cell proliferation assay to assess the effect of combining different building block molecules on cell proliferation.
The first study examined the effect of combining 4-Hydroxy-Benzoate with Benzoquinone. Cells were incubated for 48 hours, after which a cell count was performed for the live cells. Each test group was compared to the control, and each combination groups were compared to Benzoquinone control. The compounds were statistically analyzed for the addition of Benzoquinone.
Additional studies were performed testing additional molar ratios. For the first test 4-Hydroxybenzoic were tested at concentrations of 500 nM, 1 μM, and 50 μM. These concentrations were tested in combination with 2,3-Dimethoxy-5-methyl-p-benzoquinone (Benzo). The concentration of Benzo tested were 25 μM, 50 μM, and 100 μM. Melanoma cells were grown to 80% confluency and seeded in 6 well plates at a concentration of 40K cells per well. The cells were treated with CoQ10, 4-Hydroxybenzoate, Benzo, and a combination of 4-Hydroxybenzoate/Benzo.
A T-test was performed with p<0.05 as statistically significant.

In data set [5] the test system is induced pancreatic cancer. The conditions noted are these: Group H: 5 mg/kg.
For data set [6], the system named is cancer cells. The conditions noted are these: cited from earlier work.
[7] abbreviates: Skmel-28, all time points and concentrations tested (500 nM, 1 μM, 25 μM, 50 μM).
Setting [8] is: all time points and concentrations tested (500 nM, 1 μM, 25 μM, 50 μM).
Where [9] appears, read: Skmel-28, 24 hours, concentration not given.

Turning to `N[C@@H](Cc1ccccc1)C(=O)O` [L-Phenylalanine], the Bcl-2 expression entry in data set [1] (Skmel-28, 5 μM, 6 hours) is “statistically significant decrease in Bcl-2”; in data set [1] (Skmel-28, 25 μM, 12 hours), “statistically significant decrease in Bcl-2”; in data set [1] (Skmel-28, 100 μM, 3 hours and 12 hours), “statistically significant decrease in Bcl-2”. In data set [1] (Skmel-28, remaining time points, not statistically significant), the “Bcl-2 expression compared to the control” value was “constant trend for the decrease in Bcl-2”. Besides, the “Bcl-2 (summary)” value in data set [1] was “significant reduction in Bcl-2”. In data set [2] (25 μM, 12 hours), the Caspase-3 expression entry is “statistically significant increase in Caspase-3”. In addition, the “Caspase-3 expression (summary)” value in data set [2] is “increase in Caspase-3 expression”.
For the molecule `O=C(O)C(=O)Cc1ccc(O)cc1` [4-Hydroxy-phenylpyruvate], the Bcl-2 expression entry in data set [1] (Skmel-28, 5 μM and 15 μM, 24 hours) was “significant reduction in Bcl-2 expression”. Also, in data set [1], the “Bcl-2 (summary)” value is given as “significant reduction in Bcl-2”. For the same molecule, in data set [2] (5 μM and 15 μM, 12 hours), the Caspase-3 expression entry is given as “significant increase in Caspase-3 expression”. Also, in data set [2], the “Caspase-3 expression (summary)” value is “increase in Caspase-3 expression”.
Consider `NC(Cc1ccc(O)cc1)C(=O)O` (racemic) [DL-Tyrosine], for which the Bcl-2 expression entry in data set [1] (Skmel-28, 1 μM and 15 μM, 12 hours) is listed as “statistical decrease in Bcl-2 expression”; in data set [1] (Skmel-28, 5 μM, 24 hours), “statistical decrease in Bcl-2 expression”. In addition, the Caspase-3 expression result in data set [2] (5 μM and 15 μM, 12 hours) was “increase in Caspase-3 expression”.
For `C[C@@](O)(CCO)CC(=O)O` [Mevalonic Acid, mevalonic acid], the Bcl-2 expression entry in data set [1] (setting [7]) is reported as “no significant reduction in Bcl-2 expression”. Moreover, the Caspase-3 expression entry in data set [2] (setting [8]) is reported as “no significant reduction in Bcl-2 expression or an increase in Caspase-3 expression”.
As to `COc1cc(C(=O)O)ccc1O` [Vanillic Acid, vanillic acid], the Bcl-2 expression entry is recorded as “significantly reduce Bcl-2 expression” in data set [1] (Skmel-28, 500 nM and 5 μM, 24 hour); “reduction in Bcl-2 expression” in data set [1] (Skmel-28, 15 μM, 3 hours). Also, in data set [2] (15 μM, 24 hours), the Caspase-3 expression result is on record as “significant increase in Caspase-3 expression”.
Take `O=C(O)c1ccc(O)cc1` [4-Hydroxybenzoate, 4-hydroxy-benzoate]: in data set [3], the fibroblast cell number result is given as “did not show a significant reduction in fibroblast cells”. For the same molecule, the “cell number vs control” value in data set [4] (48 hours) is “significant decrease in cell number”. Moreover, in data set [4] (HB 500 nM, 1 μM, 50 μM), the cell proliferation entry is reported as “significant decrease in cell proliferation”. For the same molecule, in data set [1] (Skmel-28, 15 μM, 24 hours), the Bcl-2 expression result is on record as “significant reduction in Bcl-2 expression”.
Take `CC(=O)SCCNC(=O)CCNC(=O)[C@H](O)C(C)(C)COP(=O)(O)OP(=O)(O)OC[C@H]1O[C@@H](n2cnc3c(N)ncnc32)[C@H](O)[C@@H]1OP(=O)(O)O` [Acetyl-CoA]: the Bcl-2 expression entry in data set [1] (setting [7]) was “no significant observed reduction in Bcl-2”. The Caspase-3 expression result in data set [2] (setting [8]) is “no significant observed reduction in Bcl-2 or increase in Caspase-3 expression”.
Turning to `NC(Cc1ccccc1)C(=O)O` (racemic) [DL-Phenylalanine], in data set [1] (setting [9]), the Bcl-2 expression entry is “statistically significant decrease in Bcl-2”. The Caspase-3 expression result in data set [2] (3 hours, concentration not given) is “statistically significant increase in Caspase-3”.
In the case of `COc1cccc2c1C(=O)c1c(O)c3c(c(O)c1C2=O)C[C@@](O)(C(=O)CO)C[C@@H]3O[C@H]1C[C@H](N)[C@H](O)[C@H](C)O1` [Doxorubicin, reference compound], the “survival after 28 days” value in data set [5] is listed as “a significant number of the animals in Group H had died due to the toxicity of Doxorubicin”.
As for `COc1cc(C(O)C(=O)O)ccc1O` (stereo not drawn) [VMA, 3-methoxy-4-hydroxymandelate], in data set [1] (Skmel-28, 100 nM to 100 μM), the “Bcl-2 expression, trend” value was “downward trend of Bcl-2 expression” and the “apoptotic effect (Bcl-2, Caspase-3)” value is given as “no statistically significant apoptotic effect”.
Turning to `C=C1/C(=C\C=C2/CCC[C@]3(C)[C@@H]([C@H](C)CCCC(C)(C)O)CC[C@@H]23)C[C@@H](O)C[C@@H]1O` [Vitamin D3, 1α, 25-dihydroxyvitamin D3], in data set [6] (Deeb et al. 2007), the “expression of BCL2 and BCL-XL” value is “repressing the expression of the anti-apoptotic, pro-survival proteins BCL2 and BCL-XL”; the “expression of pro-apoptotic proteins (BAX, BAK, BAD)” value is listed as “inducing the expression of pro-apoptotic proteins”; the p21WAFI/CIPI gene transcription result was “induce gene transcription of the cyclin-dependent kinase inhibitor p21WAFI/CIPI”. For the same molecule, in data set [6] (Masuda and Jones, 2006), the “expression of VEGF” value is recorded as “inhibit the expression of vascular endothelial growth factor (VEGF)” and the “proliferation of tumor-derived endothelial cells” value is on record as “inhibit the proliferation of some tumor-derived endothelial cells”.
With `Cc1ncc(CO)c(CO)c1O` [Pyridoxine, pyridoxine], in data set [1] (setting [9]), the Bcl-2 expression entry is listed as “significant reduction in Bcl-2”.
On to `N[C@@H](Cc1ccc(O)cc1)C(=O)O` [L-Tyrosine], for which the Bcl-2 expression result in data set [1] (Skmel-28, 5 μM, 24 hours) was “statistically significant decrease in Bcl-2”; in data set [1] (Skmel-28, 500 μM and 5 μM, 24 hours) it was “statistically significant decrease in Bcl-2”. Further, in data set [1], the “Bcl-2 (summary)” value is listed as “significant reduction in Bcl-2”. For the same molecule, the Caspase-3 expression result in data set [2] (500 nM, 12 hours) was “statistically significant increase in Caspase-3”. For the same molecule, in data set [2], the “Caspase-3 expression (summary)” value is listed as “increase in Caspase-3 expression”.
As to `CC(=O)NCC(=O)O` [Acetylglycine], the Bcl-2 expression entry in data set [1] (Skmel-28, 5 μM and 25 μM, 12 hours) was “significant decrease in Bcl-2 expression”; in data set [1] (Skmel-28, 100 μM, 24 hour), “significant decrease in Bcl-2”.
Turning to `N[C@H](Cc1ccccc1)C(=O)O` [D-Phenylalanine], the Bcl-2 expression result in data set [1] (Skmel-28, 5 μM and 25 μM, 3 hours) is recorded as “significant reduction”; in data set [1] (Skmel-28, 5 μM, 25 μM and 100 μM, 6 hours), “significant reduction in Bcl-2 expression”. Further, the Caspase-3 expression entry in data set [2] (5 μM and 100 μM, 6 hours) is on record as “significant increase in Caspase-3 expression”.
Turning to `N[C@H](Cc1ccc(O)cc1)C(=O)O` [D-Tyrosine], the Bcl-2 expression result in data set [1] (Skmel-28, 5 μM and 15 μM, 12 and 24 hours) is listed as “reduction in Bcl-2 expression”. Besides, the Caspase-3 expression result in data set [2] (1 μM, 12 and 24 hour) was “increase in Caspase-3 expression”; in data set [2] (5 μM, 3, 12 and 24 time periods) it was “significantly increased”; in data set [2] (5 μM, 12 hour) it was “increase in Caspase-3 expression”.
On to `CC(C)(CO)[C@@H](O)C(=O)NCCCO` [Panthenol, panthenol], for which the Bcl-2 expression result in data set [1] (melanoma cells, 25 μM) was “significant reduction in Bcl-2 expression”.

Values taken from patent US10519504B2, “Methods for treatment of oncological disorders using epimetabolic shifters, multidimensional intracellular molecules, or environmental influencers” (Berg LLC, priority 2009, dated 2019).
